Values joined by “and” are separate entries in the source; they are usually repeats but may differ in a detail not shown here. Equal values may be shown once.

One assay relates to D2/3R. The experiment in a line: In vitro autoradiography of rat brain slices. In kind it is binding, Sprague-Dawley rats. The method, then:
In vitro autoradiography assay was performed as previously described. Frozen brains of young (10–12 weeks of age; 300–350 g body weight) male Sprague-Dawley rats (Harlan, Netherlands) were cut at −12 °C into sagittal slices 20 μm thick using a Leica microtome, and the slices were thaw-mounted on Superfrost (70 × 22 mm, Fischer) adhesive slides. Only slices containing both striatal and cerebellar regions were used. The slides with slices mounted them were allowed to dry, then put into storage boxes with silica gel bags and stored at −80 °C.
On the day of the experiment (within 1 week from the preparation of the slices), the slides were taken out of storage and allowed to come to room temperature for 5–10 min. Then, 1–1.2 mL of incubation buffer (50 mM Tris-HCl, 5 mM KCl, 2 mM CaCl2, 2 mM MgCl2, 120 mM NaCl, pH 7.4 25 °C) was applied per slide, and the slides were pre-incubated for 15 min at room temperature. The buffer was then removed, and the slides were placed into staining jars containing radioligand solution (concentration range of 0.1–10 nM) in the incubation buffer with or without 10 μM raclopride (D2/3 antagonist) or 100 μM guanosine-5'-triphosphate sodium salt (GTP, stimulator of G-protein uncoupling from the receptors). After 35 min of incubation at 37 °C, slides were washed once with ice-cold incubation buffer (3.5 min) and dipped for 30 s into ice-cold distilled water to remove buffer salts.
After drying the slides in a stream of room-temperature air, they were exposed on phosphor storage screens for 6–10 h. The storage screens were read by Cyclone Storage Phosphor System (Packard Instruments Co.). Quantification of plate readings was done with OptiQuant software (version 3.00, Packard Instruments Co.).
(§1) Degree of D2/3R-specific binding of the tracers was characterized by BPND (as given above) or the specific binding ratio (SBR) given as target region activity/cerebellar activity - 1. Both were calculated under control conditions and in response to the raclopride challenge.

The next assay deals with striatal D2/3R. The experiment in a line: Ex vivo autoradiography study in rats. As to the method:
To further assess the specific binding of [^18F]FEt-AMC13 to the striatal D2/3R, two groups of rats were anesthetized, pre-treated with saline (n = 3) or raclopride (n = 3), and 26 ± 3 min later injected with a bolus of [^18F]FEt-AMC13 (4.2 ± 1.4 MBq, 0.14 ± 0.04 nmol/kg) into the penile vein. Rats were sacrificed by heart extirpation 35 min later. Brains were quickly extracted and separated into two halves along the sagittal symmetry plane or along the coronal plane spanning the thalamus.
One half of the brain (rostral or randomly taken left/right) was quickly frozen over liquid nitrogen and prepared for cutting on the microtome in the same manner as brains used for in vitro autoradiography. Slices 40 μm thick were cut, mounted on Superfrost glass slides, permitted to dry, and then directly applied to the phosphor storage screens.
as §1

In the case of `Oc1ccc2c(c1)O[C@@H](CNCc1ccc(OCC[18F])cc1)CC2` [[^18F]FEt-AMC13], the “decrease of striatal SBR (D2/3R-specific binding) by raclopride in vitro” value with D2/3R (10 μM raclopride, compared to control conditions) turned out to be 81%. The “mean striatum-to-cerebellum uptake ratio in vitro” value in the assay on D2/3R (rat brain slices) is listed as 4.4. Also, in the assay with D2/3R (with 10 μM raclopride), the “Striatal SBR % change relative to control condition, Raclopride” value is listed as −81% and the “Striatal SBR, Raclopride” value turned out to be 0.63 ± 0.53. In addition, in the assay on D2/3R (with 100 μM GTP), the “Striatal SBR % change relative to control condition, GTP” value was −81% and the “Striatal SBR, GTP” value turned out to be 0.66 ± 0.52. For the same compound, the “Ex vivo autoradiography-based SBR” value in the assay on striatal D2/3R (1 mg/kg raclopride) is reported as 1.06 ± 0.17. Moreover, the “decrease of ex vivo autoradiography-based SBR” value with striatal D2/3R (1 mg/kg raclopride, p < 0.01) is 39%. Also, the “Striatum-to-cerebellum uptake ratio (ex vivo autoradiography)” value in the assay with striatal D2/3R (35 min post-injection, saline pre-treated rats) was 2.8 and 2.81 ± 0.29. Also, the “Ex vivo autoradiography-based SBR” value with striatal D2/3R (saline pre-treated) worked out at 1.81 ± 0.29.

The values are drawn from publication PMC4512978, “Synthesis and evaluation in rats of homologous series of [^18F]-labeled dopamine D2/3 receptor agonists based on the 2-aminomethylchroman scaffold as potential PET tracers” (EJNMMI Research, 2015).
